How the values were obtained:
MCF-7 = assay: MTT cytotoxicity assay, MCF-7; type: cell-based, human; conditions: for IC50: Homo sapiens, MCF7, MTT, 72 h, mean ± SD, read-out: IC50 MCF-7; for SI (MCF-7): ratio IC50 HEK293T / IC50 MCF-7; for activity against MCF-7, fold stronger than 5-FU: compared with 5-FU IC50; for activity against MCF-7, fold higher than harmine: compared with harmine IC50
From the text: (§1) We selected four different cancer cell lines for antiproliferative screening in vitro, which we believed would provide sufficient data on the anticancer potential of the prepared harmirins (hepatocellular carcinoma—HepG2, colorectal adenocarcinoma, Dukes’ type C—SW620, colorectal carcinoma—HCT116, and breast adenocarcinoma—MCF-7). Additionally, we included one non-cancer cell line (embryonic kidney—HEK293T) to evaluate harmirins’ selectivity. The commonly used anticancer drug 5-FU and harmine were used as positive controls. Pre-screening was performed using 50 µM of the tested compound. Only compounds that led to more than 50% reduction in mitochondrial metabolic activity at 50 µM concentration were selected for further analysis. The selectivity index (SI) for each harmirin was calculated as a fractional ratio between the IC50 values for HEK293T and the cancer cell line MCF-7 or HCT116 since these two cell lines were the most susceptible to harmirins.
(§2) The experiments were carried out on five human cell lines purchased from American Type Culture Collection (ATCC, PO BOX 1549, manassas, VA 20108, USA): HepG2 (hepatocellular carcinoma; ATCC® HB-8065™), SW620 (colorectal adenocarcinoma; ATCC® CCL-227™), HCT116 (colorectal carcinoma ATCC® CCL-247™), MCF-7 (breast adenocarcinoma, ATCC® HTB-22™), and HEK293T (embryonic kidney cells; ATCC® CRL-3216™). All cell lines were cultured as monolayers and maintained in Dulbecco’s modified Eagle medium (DMEM) (Capricorn Scientific, USA), supplemented with 10% fetal bovine serum (FBS) (Capricorn Scientific, USA), 100 U/mL penicillin, and 100 µg/mL streptomycin (Capricorn Scientific, USA) in a humidified atmosphere with 5% CO2 at 37 °C. Cells were seeded in 96-well plates (Corning, Durham, NC, USA) at 5000–7000 cells per well (depending on the cell doubling time of a specific cell line) in 0.1 mL media and cultured for 24 h. The next day, the medium was aspirated, and cells were treated for 72 h. Only the compounds that led to more than a 50% reduction in mitochondrial metabolic activity at a concentration of 50 µM were selected for further analysis. The following concentrations of selected compounds were used: 25, 10, 5, and 1 µM. Working dilutions were freshly prepared on the day of the testing. A fresh growth medium was added to untreated control cells, which were defined as 100% viable. DMSO (0.13%) in DMEM was considered a negative control. 5-Fluorouracil (5-FU) and harmine were used as positive controls. At the end of treatment, media was removed, and cells were incubated for 1 h with 0.5 mg/mL MTT (Abcam, Cambridge, MA, USA) dissolved in serum-deprived DMEM. The absorbance was directly proportional to cell viability. The MTT-containing media was then removed, and 0.1 mL isopropanol was added per well to lyse cells and dissolve formazan. The optical density was measured at 570 nm using a microplate reader (VICTOR3, PerkinElmer). Each test point was performed in triplicate. The IC50 values (concentration required to decrease viability by 50%) were calculated by using nonlinear regression on the sigmoidal dose–response plots and are expressed as mean ± SD.

HCT116 = assay: MTT cytotoxicity assay, HCT116; type: cell-based, human; conditions: for IC50: Homo sapiens, HCT-116, MTT, 72 h, mean ± SD, read-out: IC50 HCT116; for SI (HCT116): ratio IC50 HEK293T / IC50 HCT116
From the text: as §1, §2

HepG2 = assay: MTT cytotoxicity assay, HepG2; type: cell-based; conditions: Homo sapiens, HepG2; MTT, 72 h, mean ± SD; read-out: IC50 HepG2
From the text: as §1, §2

HEK293T = assay: MTT cytotoxicity assay, HEK293T (non-cancer); type: cell-based, human; conditions: Homo sapiens, HEK-293T; MTT, 72 h, mean ± SD; non-cancer cell line; read-out: IC50 Hek293T
From the text: as §1, §2

SW620 = assay: MTT cytotoxicity assay, SW620; type: cell-based; conditions: Homo sapiens, SW-620; MTT, 72 h, mean ± SD; read-out: IC50 SW620
From the text: as §1, §2

Compound | IC50 (MCF-7) [µM] | SI (MCF-7) (MCF-7) | IC50 (HCT116) [µM] | SI (HCT116) (HCT116) | melting point | IC50 (HepG2) [µM] | IC50 (HEK293T) [µM] | IC50 (SW620) [µM] | activity against MCF-7, fold stronger than 5-FU (MCF-7) | activity against MCF-7, fold higher than harmine (MCF-7)
Cc1nccc2c1[nH]c1cc(OCc3cn(-c4cc(=O)oc5ccc(F)cc45)nn3)ccc12 [12d, 6-Fluoro-4-(4-(((1-methyl-9H-pyrido[3,4-b]indol-7-yl)oxy)methyl)-1H-1,2,3-triazol-1-yl)-2H-chromen-2-one] | > 50 | >1 | > 50 | >1 | 249 to 251 °C (dec.) | > 50 | > 50 | > 50 | – | –
O=c1cc(OCc2cn(Cc3nccc4c3[nH]c3ccccc34)nn2)c2cc(Cl)ccc2o1 [4c, 4-((1-((9H-Pyrido[3,4-b]indol-1-yl)methyl)-1H-1,2,3-triazol-4-yl)methoxy)-6-chloro-2H-chromen-2-one] | 39.1 ± 3.6 | >1.3 | > 50 | >1 | 263.5 to 265 °C (dec.) | > 50 | > 50 | > 50 | – | –
Cc1nc(Cn2cc(COc3cc(=O)oc4ccccc34)nn2)cc2c1[nH]c1ccccc12 [5a, 4-((1-((1-Methyl-9H-pyrido[3,4-b]indol-3-yl)methyl)-1H-1,2,3-triazol-4-yl)methoxy)-2H-chromen-2-one] | > 50 | <0.1 | > 50 | <0.1 | 149.5 to 153.5 °C (dec.) | 17.8 ± 1.8 | 6.5 ± 1.6 | > 50 | – | –
Cc1nccc2c1[nH]c1ccc(OCc3cn(-c4cc(=O)oc5ccc(F)cc45)nn3)cc12 [11d, 6-Fluoro-4-(4-(((1-methyl-9H-pyrido[3,4-b]indol-6-yl)oxy)methyl)-1H-1,2,3-triazol-1-yl)-2H-chromen-2-one] | 1.9 ± 0.2 | – | 2.7 ± 0.4 | – | 224.5 to 225.5 °C (dec.) | 14.2 ± 0.4 | 6.9 ± 0.6 | 12.7 ± 1.8 | 9–13 fold | 5–7 fold
Cc1nccc2c1[nH]c1ccc(OCc3cn(-c4cc(=O)oc5ccccc45)nn3)cc12 [11a, 4-(4-(((1-Methyl-9H-pyrido[3,4-b]indol-6-yl)oxy)methyl)-1H-1,2,3-triazol-1-yl)-2H-chromen-2-one] | 2.2 ± 0.2 | 3 | 3.3 ± 0.4 | 2 | 235.5 to 238 °C (dec.) | 6.4 ± 0.2 | 6.4 ± 0.2 | 8.4 ± 0.3 | 9–13 fold | 5–7 fold
Cc1nccc2c1[nH]c1cc(OCc3cn(-c4cc(=O)oc5ccccc45)nn3)ccc12 [12a, 4-(4-(((1-Methyl-9H-pyrido[3,4-b]indol-7-yl)oxy)methyl)-1H-1,2,3-triazol-1-yl)-2H-chromen-2-one] | 21.6 ± 3.7 | 0.7 | 10 ± 3.4 | 1.5 | – | 19.8 ± 1.1 | 14.7 ± 0.8 | 30 ± 3.5 | – | –
Cc1nc(Cn2cc(COc3cc(=O)oc4ccc(Cl)cc34)nn2)cc2c1[nH]c1ccccc12 [5c, 6-Chloro-4-((1-((1-methyl-9H-pyrido[3,4-b]indol-3-yl)methyl)-1H-1,2,3-triazol-4-yl)methoxy)-2H-chromen-2-one] | 15 ± 1.3 | 0.6 | 7.1 ± 0.7 | 1.2 | 254 to 257.5 °C (dec.) | 18.5 ± 2.3 | 8.5 ± 0.3 | > 50 | – | –
O=c1[nH]cc(F)c(=O)[nH]1 [5-FU, 5-fluorouracil, reference compound] | 23.9 ± 5.7 | 0.3 | 5.2 ± 2.8 | 1.6 | – | 5.5 ± 0.6 | 8.1 ± 0.8 | 9.4 ± 0.3 | – | –
COc1ccc2c3ccnc(C)c3n(Cc3cn(-c4cc(=O)oc5ccc(Cl)cc45)nn3)c2c1 [13c, 6-Chloro-4-(4-((7-methoxy-1-methyl-9H-pyrido[3,4-b]indol-9-yl)methyl)-1H-1,2,3-triazol-1-yl)-2H-chromen-2-one] | 32 ± 1.9 | >1.6 | 34.4 ± 3.3 | >1.5 | 233 to 239.5 °C (dec.) | > 50 | > 50 | > 50 | – | –
O=c1cc(OCc2cn(Cc3nccc4c3[nH]c3ccccc34)nn2)c2ccccc2o1 [4a, 4-((1-((9H-Pyrido[3,4-b]indol-1-yl)methyl)-1H-1,2,3-triazol-4-yl)methoxy)-2H-chromen-2-one] | > 50 | >1 | > 50 | >1 | 260.5 to 264 °C (dec.) | 29.5 ± 3.5 | > 50 | > 50 | – | –
Cc1ccc2oc(=O)cc(-n3cc(COc4ccc5[nH]c6c(C)nccc6c5c4)nn3)c2c1 [11b, 6-Methyl-4-(4-(((1-methyl-9H-pyrido[3,4-b]indol-6-yl)oxy)methyl)-1H-1,2,3-triazol-1-yl)-2H-chromen-2-one] | 10.4 ± 0.8 | 2 | > 50 | <0.4 | 235 to 242 °C (dec.) | 13.6 ± 0.8 | 21.3 ± 4.1 | > 50 | – | –
Cc1nccc2c1[nH]c1cc(OCc3cn(-c4cc(=O)oc5ccc(Cl)cc45)nn3)ccc12 [12c, 6-Chloro-4-(4-(((1-methyl-9H-pyrido[3,4-b]indol-7-yl)oxy)methyl)-1H-1,2,3-triazol-1-yl)-2H-chromen-2-one] | 38.2 ± 2.5 | 1.2 | 37.6 ± 6.9 | 1.2 | 244 to 247 °C (dec.) | > 50 | 46.2 ± 4.7 | > 50 | – | –
Cc1nccc2c1[nH]c1ccc(OCc3cn(-c4cc(=O)oc5ccc(Cl)cc45)nn3)cc12 [11c, 6-Chloro-4-(4-(((1-methyl-9H-pyrido[3,4-b]indol-6-yl)oxy)methyl)-1H-1,2,3-triazol-1-yl)-2H-chromen-2-one] | 13.3 ± 1.5 | 0.9 | 15.5 ± 4.4 | 0.8 | 220 to 225 °C (dec.) | 14 ± 1.2 | 12.2 ± 1 | 30.3 ± 3.9 | – | –

— PMC8587047, “Synthesis and Biological Evaluation of Harmirins, Novel Harmine–Coumarin Hybrids as Potential Anticancer Agents” (Molecules, 2021)
